Laboratory results from ChEMBL document CHEMBL3244242, “3-Benzazocine amidinium nitronates. An unusual type of opiate antagonist” (J Med Chem, 1978).
Activity calls are given as the source filed them. The rule behind the calls is not given here.

Key:
Mus musculus [1] = assay: Inhibition of morphine sulfate-induced analgesic activity in sc dosed Swiss albino mouse measured 30 mins post morphine sulfate challenge by mouse tail-flick test; assay type: functional
Mus musculus [2] = assay: Analgesic activity in Swiss albino mouse at 5 to 20 mg/kg administered intramuscularly by mouse tail-flick test; assay type: functional, organism-based
Mus musculus [3] = assay: Inhibition of morphine sulfate-induced analgesic activity in Swiss albino mouse at 20 mg/kg administered intramuscularly measured 8 hrs post morphine sulfate challenge by mouse tail-flick test; assay type: functional; details: route intramuscular
[4] = Solubility of the compound in water; assay type: physicochemical; details: buffer
Mus musculus [5] = assay: Inhibition of morphine sulfate-induced analgesic activity in Swiss albino mouse at 20 mg/kg administered intramuscularly measured 30 mins post morphine sulfate challenge by mouse tail-flick test; assay type: functional, organism-based; design: dose 20 mg/kg
Mus musculus [6] = assay: Analgesic activity in Swiss albino mouse at 20 mg/kg, sc by mouse tail-flick test; assay type: functional, organism-based; design: dose 20 mg/kg
Mus musculus [7] = assay: Inhibition of morphine sulfate-induced analgesic activity in Swiss albino mouse at 20 mg/kg, sc measured 24 hrs post morphine sulfate challenge by mouse tail-flick test; assay type: functional; details: route subcutaneous
Mus musculus [8] = assay: Inhibition of morphine sulfate-induced analgesic activity in Swiss albino mouse at 20 mg/kg, sc measured 48 hrs post morphine sulfate challenge by mouse tail-flick test relative to naloxone hydrochloride; assay type: functional, organism-based; design: dose 20 mg/kg

SMILES | AD50 (Mus musculus [1]) | Activity (Mus musculus [2]) | Imax (Mus musculus [3]) | solubility [4] | Activity (Mus musculus [5]) | Activity (Mus musculus [6]) | Imax (Mus musculus [7]) | inhibition (Mus musculus [8])
C[C@@H]1C2Cc3ccc([N+](=O)[O-])cc3[C@@]1(C)CCN2CC1CC1 | 9.6 mg/kg |  |  |  |  |  |  | 
CN(C)C(=[NH2+])Cc1ccccc1.CN(C)C1=NC2C(=[N+]([O-])[O-])c3ccc([N+](=O)[O-])cc3C(C1c1ccccc1)C2[N+](=O)[O-] (centres undefined) |  | inactive | 50% | Insoluble |  |  |  | 
CN(C)C(=[NH2+])Cc1ccccc1.CN(C)C1=NC2c3cc([N+](=O)[O-])ccc3C(=[N+]([O-])[O-])C(C1c1ccccc1)C2[N+](=O)[O-] (centres undefined) |  | inactive |  | Insoluble | inactive |  |  | 
CN(C)C(=[NH2+])Cc1ccccc1.CN(C)C1=NC2C(=[N+]([O-])[O-])c3c(cccc3[N+](=O)[O-])C(C1c1ccccc1)C2[N+](=O)[O-] (centres undefined) |  |  |  | Insoluble |  | inactive | 50% | Active
CN(C)C(=[NH2+])Cc1ccccc1.CN(C)C1=NC2c3ccccc3C(=[N+]([O-])[O-])C(C1c1ccccc1)C2[N+](=O)[O-] (centres undefined) |  | inactive |  | Insoluble | inactive |  |  | 
